Experimental data taken from ChEMBL document CHEMBL1649454, “Genetic analysis of colistin resistance in Salmonella enterica serovar Typhimurium” (2009).
Activity calls are given as the source filed them. The calls are words filed in the database; no cut-off is given here.

How the values were obtained:
[1] = system: Salmonella typhimurium; experiment: Antimicrobial activity against Salmonella enterica serovar Typhimurium LT2 DA10826 harboring pmrA (GGG to GAG, G53E mutant) grown in liquid culture; type: functional
[2] = system: Salmonella typhimurium; experiment: Antimicrobial activity against Salmonella enterica serovar Typhimurium LT2 DA10840 harboring pmrA (CGC to CAC, R81H mutant) grown in liquid culture; type: functional
[3] = system: Salmonella typhimurium; experiment: Antimicrobial activity against Salmonella enterica serovar Typhimurium LT2 DA10833 harboring pmrB (GAA to AAA, E161K mutant) grown in liquid culture; type: functional
[4] = system: Salmonella typhimurium; experiment: Antimicrobial activity against Salmonella enterica serovar Typhimurium LT2 DA10845 harboring pmrB (ATG to ATA, M186I mutant) grown in liquid culture; type: functional
[5] = system: Salmonella typhimurium; experiment: Antimicrobial activity against Salmonella enterica serovar Typhimurium LT2 DA6192 grown in liquid culture; type: functional
[6] = system: Salmonella typhimurium; experiment: Antimicrobial activity against Salmonella enterica serovar Typhimurium LT2 DA10848 harboring pmrB (ACG to CCG, T156P mutant) by Etest method; type: functional, organism-based; conditions: Salmonella enterica subsp. enterica serovar Typhimurium str. LT2
[7] = system: Salmonella typhimurium; experiment: Antimicrobial activity against Salmonella enterica serovar Typhimurium LT2 DA10839 harboring pmrB (TCC to CCC, S124P mutant) by Etest method; type: functional, organism-based; conditions: Salmonella enterica subsp. enterica serovar Typhimurium str. LT2
[8] = system: Salmonella typhimurium; experiment: Antimicrobial activity against Salmonella enterica serovar Typhimurium LT2 DA10837 harboring pmrB (CCG to CAG, P94Q mutant) by Etest method; type: functional, organism-based; conditions: Salmonella enterica subsp. enterica serovar Typhimurium str. LT2
[9] = system: Salmonella typhimurium; experiment: Antimicrobial activity against Salmonella enterica serovar Typhimurium LT2 DA10859 harboring pmrB (GTG to GGG, V161G mutant) by Etest method; type: functional, organism-based; conditions: Salmonella enterica subsp. enterica serovar Typhimurium str. LT2
[10] = system: Salmonella typhimurium; experiment: Antimicrobial activity against Salmonella enterica serovar Typhimurium LT2 DA10862 harboring pmrB (GAG to GCG, E21A mutant) by Etest method; type: functional, organism-based; conditions: Salmonella enterica subsp. enterica serovar Typhimurium str. LT2
[11] = system: Salmonella typhimurium; experiment: Antimicrobial activity against Salmonella enterica serovar Typhimurium LT2 DA10863 harboring pmrB (GGG to TGG, G206W mutant) by Etest method; type: functional, organism-based; conditions: Salmonella enterica subsp. enterica serovar Typhimurium str. LT2
[12] = system: Salmonella typhimurium; experiment: Antimicrobial activity against Salmonella enterica serovar Typhimurium LT2 DA10831 harboring pmrB (AGC to CGC, S305R mutant) by Etest method; type: functional, organism-based; conditions: Salmonella enterica subsp. enterica serovar Typhimurium str. LT2
[13] = system: Salmonella typhimurium; experiment: Bactericidal activity against Salmonella enterica serovar Typhimurium LT2 DA6192 at 1 mg/L after 30 mins by time kill study; type: functional, organism-based; conditions: Salmonella enterica subsp. enterica serovar Typhimurium str. LT2
[14] = system: Salmonella typhimurium; experiment: Bactericidal activity against Salmonella enterica serovar Typhimurium LT2 DA10840 harboring pmrA R81H mutant at 16 mg/L after 240 mins by time kill study; type: functional, organism-based; conditions: Salmonella enterica subsp. enterica serovar Typhimurium str. LT2
[15] = system: Salmonella typhimurium; experiment: Antimicrobial activity against Salmonella enterica serovar Typhimurium LT2 DA10835 harboring (pmrB GTG to CTG, V161L mutant) by Etest method; type: functional, organism-based; conditions: Salmonella enterica subsp. enterica serovar Typhimurium str. LT2
[16] = system: Salmonella typhimurium; experiment: Antimicrobial activity against Salmonella enterica serovar Typhimurium LT2 DA10845 harboring pmrB (ATG to ATA, M186I mutant) by Etest method; type: functional, organism-based; conditions: Salmonella enterica subsp. enterica serovar Typhimurium str. LT2
[17] = system: Salmonella typhimurium; experiment: Bactericidal activity against Salmonella enterica serovar Typhimurium LT2 DA10845 harboring pmrB M186I mutant at 16 mg/L after 30 mins by time kill study; type: functional, organism-based; conditions: Salmonella enterica subsp. enterica serovar Typhimurium str. LT2
[18] = system: Salmonella typhimurium; experiment: Antimicrobial activity against Salmonella enterica serovar Typhimurium LT2 DA10850 harboring pmrA (GGG to AGG, G53R mutant) by Etest method; type: functional, organism-based; conditions: Salmonella enterica subsp. enterica serovar Typhimurium str. LT2
[19] = system: Salmonella typhimurium; experiment: Antimicrobial activity against Salmonella enterica serovar Typhimurium LT2 DA10856 harboring pmrB (GTG to ATG, V161M mutant) by Etest method; type: functional, organism-based; conditions: Salmonella enterica subsp. enterica serovar Typhimurium str. LT2
[20] = system: Salmonella typhimurium; experiment: Antimicrobial activity against Salmonella enterica serovar Typhimurium LT2 DA10844 harboring pmrA (GGG to AGG, G15R mutant) by Etest method; type: functional, organism-based; conditions: Salmonella enterica subsp. enterica serovar Typhimurium str. LT2
[21] = system: Salmonella typhimurium; experiment: Antimicrobial activity against Salmonella enterica serovar Typhimurium LT2 DA10864 harboring pmrB (AGC to AGA, S305R mutant) by Etest method; type: functional, organism-based; conditions: Salmonella enterica subsp. enterica serovar Typhimurium str. LT2
[22] = system: Salmonella typhimurium; experiment: Antimicrobial activity against Salmonella enterica serovar Typhimurium LT2 DA10874 harboring pmrB ACC to CCC, T147P mutant) by Etest method; type: functional, organism-based; conditions: Salmonella enterica subsp. enterica serovar Typhimurium str. LT2
[23] = system: Salmonella typhimurium; experiment: Bactericidal activity against Salmonella enterica serovar Typhimurium LT2 DA10829 harboring pmrB S29R mutant at 16 mg/L after 240 mins by time kill study; type: functional, organism-based; conditions: Salmonella enterica subsp. enterica serovar Typhimurium str. LT2
[24] = system: Salmonella typhimurium; experiment: Bactericidal activity against Salmonella enterica serovar Typhimurium LT2 DA10840 harboring pmrA R81H mutant at 16 mg/L after 30 mins by time kill study; type: functional, organism-based; conditions: Salmonella enterica subsp. enterica serovar Typhimurium str. LT2
[25] = system: Salmonella typhimurium; experiment: Antimicrobial activity against Salmonella enterica serovar Typhimurium LT2 DA10875 harboring pmrB (GGG to AGG, G206R mutant) by Etest method; type: functional, organism-based; conditions: Salmonella enterica subsp. enterica serovar Typhimurium str. LT2
[26] = system: Salmonella typhimurium; experiment: Antimicrobial activity against Salmonella enterica serovar Typhimurium LT2 DA10853 pmrB AAT to TAT and N130Y mutant by Etest method; type: functional, organism-based; conditions: Salmonella enterica subsp. enterica serovar Typhimurium str. LT2
[27] = system: Salmonella typhimurium; experiment: Antimicrobial activity against Salmonella enterica serovar Typhimurium LT2 DA10840 harboring pmrA (CGC to CAC, R81H mutant) by Etest method; type: functional, organism-based; conditions: Salmonella enterica subsp. enterica serovar Typhimurium str. LT2
[28] = system: Salmonella typhimurium; experiment: Antimicrobial activity against Salmonella enterica serovar Typhimurium LT2 DA10829 harboring pmrB (AGT to AGA, S29R mutant) by Etest method; type: functional, organism-based; conditions: Salmonella enterica subsp. enterica serovar Typhimurium str. LT2
[29] = system: Salmonella typhimurium; experiment: Antimicrobial activity against Salmonella enterica serovar Typhimurium LT2 DA10833 harboring pmrB (GAA to AAA, E161K mutant) by Etest method; type: functional, organism-based; conditions: Salmonella enterica subsp. enterica serovar Typhimurium str. LT2
[30] = system: Salmonella typhimurium; experiment: Antimicrobial activity against Salmonella enterica serovar Typhimurium LT2 DA6192 by Etest method; type: functional, organism-based; conditions: Salmonella enterica subsp. enterica serovar Typhimurium str. LT2
[31] = system: Salmonella typhimurium; experiment: Antimicrobial activity against Salmonella enterica serovar Typhimurium LT2 DA10832 harboring pmrB (ACC to GCC, T92A mutant) by Etest method; type: functional, organism-based; conditions: Salmonella enterica subsp. enterica serovar Typhimurium str. LT2
[32] = system: Salmonella typhimurium; experiment: Bactericidal activity against Salmonella enterica serovar Typhimurium LT2 DA10845 harboring pmrB M186I mutant at 16 mg/L after 240 mins by time kill study; type: functional, organism-based; conditions: Salmonella enterica subsp. enterica serovar Typhimurium str. LT2
[33] = system: Salmonella typhimurium; experiment: Antimicrobial activity against Salmonella enterica serovar Typhimurium LT2 DA10826 harboring pmrA (GGG to GAG, G53E mutant)by Etest method; type: functional, organism-based; conditions: Salmonella enterica subsp. enterica serovar Typhimurium str. LT2
[34] = system: Salmonella typhimurium; experiment: Antimicrobial activity against Salmonella enterica serovar Typhimurium LT2 DA10857 harboring pmrA (CGC to TGC, R81C mutant) by Etest method; type: functional, organism-based; conditions: Salmonella enterica subsp. enterica serovar Typhimurium str. LT2
[35] = system: Salmonella typhimurium; experiment: Bactericidal activity against Salmonella enterica serovar Typhimurium LT2 DA10829 harboring pmrB S29R mutant at 16 mg/L after 30 mins by time kill study; type: functional, organism-based; conditions: Salmonella enterica subsp. enterica serovar Typhimurium str. LT2
[36] = Salmonella enterica subsp. enterica serovar Typhimurium str. LT2

## CC[C@H](C)[C@H](NC(=O)[C@H](CCCCN)NC(=O)[C@H](CCC(=O)O)NC(=O)[C@H](CCCCN)NC(=O)[C@H](CO)NC(=O)[C@H](CCCCN)NC(=O)[C@H](CCCNC(=N)N)NC(=O)[C@H](Cc1ccccc1)NC(=O)[C@H](Cc1ccccc1)NC(=O)[C@H](CC(=O)O)NC(=O)CNC(=O)[C@H](CC(C)C)NC(=O)[C@@H](N)CC(C)C)C(=O)NCC(=O)N[C@@H](CCCCN)C(=O)N[C@@H](CCC(=O)O)C(=O)N[C@@H](Cc1ccccc1)C(=O)N[C@@H](CCCCN)C(=O)N[C@@H](CCCNC(=N)N)C(=O)N[C@H](C(=O)N[C@H](C(=O)N[C@@H](CCC(N)=O)C(=O)N[C@@H](CCCNC(=N)N)C(=O)N[C@H](C(=O)N[C@@H](CCCCN)C(=O)N[C@@H](CC(=O)O)C(=O)N[C@@H](Cc1ccccc1)C(=O)N[C@@H](CC(C)C)C(=O)N[C@@H](CCCNC(=N)N)C(=O)N[C@@H](CC(N)=O)C(=O)N[C@@H](CC(C)C)C(=O)N[C@H](C(=O)N1CCC[C@H]1C(=O)N[C@@H](CCCNC(=N)N)C(=O)N[C@H](C(=O)N[C@@H](CCC(=O)O)C(=O)N[C@@H](CO)C(=O)O)[C@@H](C)O)C(C)C)[C@@H](C)CC)C(C)C)[C@@H](C)CC [CATHELICIDIN]
[1]
  MIC: 25 µM
[2]
  MIC: 25 µM
[3]
  MIC: 25 µM
[4]
  MIC: 25 µM
[5]
  MIC: 15 µM

## BLEOMYCIN
[1]; [36]
  MIC: 0.19 µg/mL
[2]; [36]
  MIC: 0.19 µg/mL
[3]; [36]
  MIC: 0.19 µg/mL
[4]; [36]
  MIC: 0.19 µg/mL
[5]; [36]
  MIC: 0.19 µg/mL

## COLISTIN
[6]
  MIC: 4.4 µg/mL
[7]
  MIC: 2.3 µg/mL
[8]
  MIC: 2.5 µg/mL
[9]
  MIC: 3 µg/mL
[10]
  MIC: 4 µg/mL
[11]
  MIC: 2 µg/mL
[12]
  MIC: 2.7 µg/mL
[13]
  Activity: Active
[14]
  Activity: Active
[15]
  MIC: 2 µg/mL
[16]
  MIC: 2.8 µg/mL
[17]
  Activity: Active
[18]
  MIC: 3 µg/mL
[19]
  MIC: 4 µg/mL
[20]
  MIC: 2.7 µg/mL
[21]
  MIC: 2.7 µg/mL
[22]
  MIC: 2.5 µg/mL
[23]
  Activity: Active
[24]
  Activity: Active
[25]
  MIC: 2 µg/mL
[26]
  MIC: 2 µg/mL
[27]
  MIC: 3 µg/mL
[28]
  MIC: 0.5 µg/mL
[29]
  MIC: 3 µg/mL
[30]
  MIC: 0.125 µg/mL
[31]
  MIC: 0.25 µg/mL
[32]
  Activity: Active
[33]
  MIC: 3 µg/mL
[34]
  MIC: 4 µg/mL
[35]
  Activity: Active

## H-RRRPRPPYLPRPRPPPFFPPRLPPRIPPGFPPRFPPRFP-NH2
[1]
  MIC: 3 µM
[2]
  MIC: 3 µM
[3]
  MIC: 3 µM
[4]
  MIC: 3 µM
[5]
  MIC: 3 µM
